Source: patent US11026942B2, “Agent for preventing and/or treating Alzheimer's disease” (KYOTO UNIVERSITY, priority 2015, dated 2021)
Like-named read-outs stand apart in the source and are kept apart here.

Assays:
Assay type in all cases: cell-based, human
[1] = test system: Aβ; experiment: Aβ pathology (Aβ amount in medium) in cerebral cortex nerve cells induced from FAD1 patient iPS cells; conditions: for Aβ lesion (Aβ amount) / Aβ pathology: FAD1 nerve cells; for Aβ lesion (Aβ amount): compounds added 8 days after differentiation induction, Aβ amount two days later; for Aβ pathology: low dose
Text: To perform induction from iPS cells to the cerebral cortex nerve early and with high reproducibility, iPS cells introduced with human Neurogenin 2 gene (NGN2) linked to doxycycline-inducible promoter by using PiggyBac were used (FIG. 1a, FIG. 1b, FIG. 4a and FIG. 4b). IPS cells prepared from 4 patients with familial Alzheimer's disease (FAD), 2 patients with sporadic Alzheimer's disease (SAD) and 4 healthy individuals (HC) were used. The iPS cells were established by the method described in Okita K et al., Nature. […]
(§1) To further study reproducibility of the candidate drugs obtained by the primary screening, secondary screening was conducted. In addition to Aβ40, Aβ42, Aβ42/40 ratio, Aβ38, Aβ43, sAPPα, sAPPβ were also studied and each numerical value was obtained.

[2] = test system: sAPPα; experiment: sAPPα in FAD1 iPS cell-derived nerve cells (secondary screening); set-up: scale not given here; conditions: secondary screening, FAD1 iPS cell-derived nerve cells
Protocol: as §1

[3] = test system: Aβ42; experiment: Aβ42 in FAD1 iPS cell-derived nerve cells (primary/secondary screening, dose dependency)
Method in brief: (§2)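 Cerebral cortex neurons were induced from FAD1 patient iPS cells by doxycycline-inducible NGN2, delivered by PiggyBac. Aβ40 and Aβ42 in the culture medium gave the Aβ42/40 ratio, with dose dependency examined in primary and secondary screens. The secondary screen also covered Aβ38, Aβ43, sAPPα and sAPPβ.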

[4] = test system: Aβ38; experiment: Aβ38 in FAD1 iPS cell-derived nerve cells (secondary screening); set-up: scale not given here
Protocol: as §1

[5] = test system: sAPPβ; experiment: sAPPβ in FAD1 iPS cell-derived nerve cells (secondary screening); set-up: sAPPβ: scale not given here; conditions: for sAPPβ: secondary screening, FAD1 iPS cell-derived nerve cells
Protocol: as §1

[6] = test system: Aβ42/40 ratio; experiment: Aβ42/40 ratio in FAD1 iPS cell-derived nerve cells (primary/secondary screening, dose dependency); conditions: secondary screening
Method in brief: as §2

[7] = test system: Aβ43; experiment: Aβ43 in FAD1 iPS cell-derived nerve cells (secondary screening); set-up: scale not given here
Protocol: as §1

[8] = test system: Aβ40; conditions: secondary screening, FAD1 iPS cell-derived nerve cells, numerical value (Aβ change rate)
Text: To perform induction from iPS cells to the cerebral cortex nerve early and with high reproducibility, iPS cells introduced with human Neurogenin 2 gene (NGN2) linked to doxycycline-inducible promoter by using PiggyBac were used (FIG. 1a, FIG. 1b, FIG. 4a and FIG. 4b). IPS cells prepared from 4 patients with familial Alzheimer's disease (FAD), 2 patients with sporadic Alzheimer's disease (SAD) and 4 healthy individuals (HC) were used. The iPS cells were established by the method described in Okita K et al., Nature.
Structural formulas (those in the form of salt or halide are also described as free form) and the general names of the candidate compounds are shown in Table 1.
as §1

[9] = secondary screening, FAD1 iPS cell-derived nerve cells, numerical value (Aβ change rate)

Compound | Aβ lesion (Aβ amount) [1] | Aβ pathology [1] | Aβ suppressive effect (dopamine series) [1] | sAPPα [2] | Aβ42 [3, 9] | Aβ38 [4] | action suggested from the sAPP metabolism ([5]; sAPPα, sAPPβ, sAPPβ/α ratio) | sAPPβ [5] | Ratio Aβ42/40 [6] | Aβ43 [7] | Aβ suppressive effect (dopamine series) ([1]; neuron derived from iPS cell (FAD1)) | Aβ40 [8] | Aβ42 ([3]; FAD1 nerve cells, low dose)
CC(NC(=O)c1cc(C(=O)NC(Cc2ccccc2)C(O)CNC2CC2)cc(N(C)S(C)(=O)=O)c1)c1ccccc1 (racemic) [RACE inhibitor IV] | improved Aβ lesion | – | – | – | – | – | – | – | – | – | – | – | –
CC(C(=O)O)c1ccc(-c2ccccc2)c(F)c1 (stereo not drawn) [Flurbiprofen] | – | not improved | – | – | – | – | – | – | – | – | – | – | –
CC(C)C[C@H](C(=O)O)c1cc(-c2ccc(C(F)(F)F)cc2)cc(-c2ccc(C(F)(F)F)cc2)c1 [JNJ-40418677] | improved Aβ lesion | – | – | – | – | – | – | – | – | – | – | – | –
COc1cc(C)c(/C=C/C(C)=C/C=C/C(C)=C/C(=O)O)c(C)c1C [acitretin] | improved Aβ lesion | – | – | – | – | – | – | – | – | – | – | – | –
CC(N)Cc1ccccc1 (stereo not drawn) [amphetamine] | – | – | show effects | – | – | – | – | – | – | – | – | – | –
CC(C)C[C@H]1C(=O)N2CCC[C@H]2[C@]2(O)O[C@](NC(=O)[C@@H]3C=C4c5cccc6[nH]c(Br)c(c56)C[C@H]4N(C)C3)(C(C)C)C(=O)N12 [compound 52, BROMOCRIPTINE] | – | – | show effects | 1.18 | 0.63 | 0.97 | BSI-like action | 0.79 | 0.64 | 0.65 | – | – | –
NCCc1ccc(O)c(O)c1 [compound 90, DOPAMINE] | – | – | – | 0.91 | 0.88 | 1.01 | – | 0.95 | 0.92 | 0.96 | show effects | – | –
CN[C@H](CC(C)C)C(=O)N[C@H]1C(=O)N[C@@H](CC(N)=O)C(=O)N[C@H]2C(=O)N[C@H]3C(=O)N[C@H](C(=O)N[C@H](C(=O)O)c4cc(O)cc(O)c4-c4cc3ccc4O)[C@H](O)c3ccc(c(Cl)c3)Oc3cc2cc(c3O[C@@H]2O[C@H](CO)[C@@H](O)[C@H](O)[C@H]2O[C@H]2C[C@](C)(N)[C@H](O)[C@H](C)O2)Oc2ccc(cc2Cl)[C@H]1O [compound 105, VANCOMYCIN] | – | – | – | 1.33 | 1.06 | 1.29 | – | 1.36 | 1.05 | 1.2 | – | 1.01 | –
CCCCCCCCCCCCCCCC[N+](C)(C)C [compound 113, CETRIMONIUM] | – | – | – | 0.76 | 0.71 | 0.56 | – | 0.59 | 0.74 | 0.56 | – | – | –
N[C@@H]1CONC1=O [compound 114, CYCLOSERINE] | – | – | – | 0.84 | 0.92 | 1.06 | – | 0.82 | 0.95 | 0.85 | – | – | –
Nc1ccn([C@@H]2O[C@H](CO)[C@@H](O)[C@@H]2O)c(=O)n1 [compound 115, CYTARABINE] | – | – | – | 0.74 | 0.8 | 0.99 | – | 0.69 | 0.9 | 0.81 | – | – | –
NC(=O)NC1NC(=O)NC1=O (stereo not drawn) [compound 116, ALLANTOIN] | – | – | – | 1.05 | 0.88 | 1.07 | – | 0.93 | 0.96 | 1.13 | – | – | –
C=CCSCC1Nc2cc(Cl)c(S(N)(=O)=O)cc2S(=O)(=O)N1 (stereo not drawn) [compound 117, ALTHIAZIDE] | – | – | – | 0.92 | 0.81 | 1.03 | – | 0.7 | 0.91 | 0.91 | – | – | –
O=C(O)[C@H]1/C(=C/CO)O[C@@H]2CC(=O)N21 [compound 118, CLAVULANIC ACID] | – | – | – | 0.88 | 0.84 | 1.01 | – | 1 | 0.88 | 0.75 | – | – | –
Cc1cc2c(cc1S(N)(=O)=O)S(=O)(=O)CCC2 [compound 119] | – | – | – | 1.07 | 0.74 | 1.14 | – | 0.87 | 0.78 | 1.16 | – | – | –
Nc1ccc(S(=O)(=O)c2ccc(N)cc2)cc1 [compound 120, DAPSONE] | – | – | – | 0.74 | 0.83 | 1.06 | – | 0.6 | 0.84 | 0.8 | – | – | –
NCCc1cnc[nH]1 [compound 121, HISTAMINE] | – | – | – | 1.08 | 1.02 | 1.22 | – | 1.15 | 1.09 | 1.23 | – | – | –

Compound | Aβ lesion (Aβ amount) [1] | Aβ pathology [1] | Aβ suppressive effect (dopamine series) [1] | sAPPα [2] | Aβ42 [3, 9] | Aβ38 [4] | action suggested from the sAPP metabolism ([5]; sAPPα, sAPPβ, sAPPβ/α ratio) | sAPPβ [5] | Ratio Aβ42/40 [6] | Aβ43 [7] | Aβ suppressive effect (dopamine series) ([1]; neuron derived from iPS cell (FAD1)) | Aβ40 [8] | Aβ42 ([3]; FAD1 nerve cells, low dose)
Nc1nc(=S)c2[nH]cnc2[nH]1 [compound 122, THIOGUANINE] | – | – | – | 0.95 | 0.69 | 0.91 | – | 0.9 | 0.88 | 0.92 | – | – | –
Cn1c(=O)c2[nH]c(Cl)nc2n(C)c1=O [compound 124, 8-chlorotheophylline] | – | – | – | 0.97 | 0.98 | 1.06 | – | 1.02 | 1.01 | 0.97 | – | – | –
CC1=NS(=O)(=O)c2cc(Cl)ccc2N1 [compound 125, DIAZOXIDE] | – | – | – | 0.84 | 0.92 | 1.08 | – | 0.84 | 0.97 | 0.9 | – | – | –
CC(C)CC(N(C)C)C1(c2ccc(Cl)cc2)CCC1 (stereo not drawn) [compound 126, SIBUTRAMINE] | – | – | – | 0.8 | 0.88 | 1.05 | – | 0.92 | 0.87 | 0.87 | – | – | –
O=C1c2ccccc2C(=O)C1c1ccc(Cl)cc1 [compound 127, CHLORINDIONE] | – | – | – | 0.74 | 0.79 | 0.92 | – | 0.67 | 0.85 | 0.87 | – | – | –
CN1C(=O)CCS(=O)(=O)C1c1ccc(Cl)cc1 (stereo not drawn) [compound 128, CHLORMEZANONE] | – | – | – | 0.85 | 0.86 | 1.05 | – | 0.72 | 0.78 | 0.85 | – | – | –
CN(C)CCN(Cc1ccc(Cl)cc1)c1ccccn1 [compound 129, CHLOROPYRAMINE] | – | – | – | 0.87 | 0.83 | 0.96 | – | 0.86 | 0.81 | 0.89 | – | – | –
FC(F)(F)COCC(F)(F)F [compound 130, FLUROTHYL] | – | – | – | 0.79 | 0.8 | 1.03 | – | 0.69 | 0.85 | 0.81 | – | – | –
Cc1ccc(NC(=O)c2ccc(CN3CCN(C)CC3)cc2)cc1Nc1nccc(-c2cccnc2)n1 [imatinib] | – | not improved | – | – | – | – | – | – | – | – | – | – | –
CC(C)[C@H](O)C(=O)N[C@@H](C)C(=O)N[C@@H]1C(=O)N(C)CCc2ccccc21 [semagacestat] | improved Aβ lesion | – | – | – | – | – | – | – | – | – | – | – | increased
CC1=C(CC(=O)O)c2cc(F)ccc2/C1=C\c1ccc([S+](C)[O-])cc1 (stereo not drawn) [sulindac] | – | not improved | – | – | – | – | – | – | – | – | – | – | –
BITOSCANATE [compound 123] | – | – | – | 0.76 | 0.89 | 1.01 | – | 0.73 | 0.96 | 1 | – | 0.93 | –
CARBADOX [compound 29] | – | – | – | 0.86 | 0.74 | 0.87 | – | 0.78 | 0.88 | 0.76 | – | 0.84 | –
CEFAMANDOLE [compound 66] | – | – | – | 0.79 | 0.97 | 1.11 | – | 0.78 | 0.9 | 1.11 | – | 1.08 | –
CINCHONINE [compound 24] | – | – | – | 0.76 | 0.88 | – | – | 0.68 | – | 0.81 | – | 0.87 | –
DESOXYCORTICOSTERONE [compound 98] | – | – | – | 0.88 | 0.9 | 1.09 | – | 0.87 | 0.9 | 0.89 | – | 1 | –
TELITHROMYCIN [compound 108] | – | – | – | 0.71 | 0.85 | – | – | 0.68 | – | 0.84 | – | 0.99 | –
